For assay [1], the target named is ER-β receptor (Homo sapiens, UniProt Q92731). As to the kind of experiment: Radioligand ([3H]-estradiol) competition binding to estrogen receptor, ER-β. The following applies: [3H]-estradiol 100 nM, incubated overnight at 4° C., GF/B filtration, scintillation counting; read-out: Affinity constant of ER-β receptor. As to the method: (§1) The activity of the compound was obtained as follows: the compound was first dissolved in DMSO and formulated into 6-8 concentration gradient solutions. The estrogen receptor and radiolabeled estradiol ([^3H]-estradiol, 100 nM) were added into the buffer and mixed to prepare a reaction solution. Each compound concentration gradient solution was separately added into the reaction solution, mixed, and incubated overnight at 4° C. so that the compound and estradiol fully reacted with the estrogen receptor. Then, the TopCount NXT Liquid Scintillation Counter (Perkin Elmer) was used for the radioactivity intensity measurement after GF/B filtration. Data processing was performed according to the detected values of each concentration to obtain the affinity constant of the compound with estrogen receptor, as shown in the following table: […]
ER-β receptor, sequence (Q92731 whole entry): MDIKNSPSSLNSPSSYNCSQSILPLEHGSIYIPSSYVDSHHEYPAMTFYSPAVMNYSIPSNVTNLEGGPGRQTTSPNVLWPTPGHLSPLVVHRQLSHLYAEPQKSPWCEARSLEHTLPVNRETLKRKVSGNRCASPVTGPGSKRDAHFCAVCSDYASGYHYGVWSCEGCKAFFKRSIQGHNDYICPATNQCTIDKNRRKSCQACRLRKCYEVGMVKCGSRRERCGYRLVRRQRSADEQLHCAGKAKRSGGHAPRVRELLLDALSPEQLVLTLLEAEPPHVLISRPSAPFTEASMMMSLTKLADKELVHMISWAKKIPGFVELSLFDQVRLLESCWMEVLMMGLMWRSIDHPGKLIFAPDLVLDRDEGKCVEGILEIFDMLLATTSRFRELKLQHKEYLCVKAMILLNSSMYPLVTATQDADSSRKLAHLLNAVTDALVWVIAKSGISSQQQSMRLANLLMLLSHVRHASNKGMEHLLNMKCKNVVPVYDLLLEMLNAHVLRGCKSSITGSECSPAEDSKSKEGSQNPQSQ

Assay [2] addresses T1, ER-α receptor (Homo sapiens, UniProt P03372).
T1 sequence (P03372 1-595): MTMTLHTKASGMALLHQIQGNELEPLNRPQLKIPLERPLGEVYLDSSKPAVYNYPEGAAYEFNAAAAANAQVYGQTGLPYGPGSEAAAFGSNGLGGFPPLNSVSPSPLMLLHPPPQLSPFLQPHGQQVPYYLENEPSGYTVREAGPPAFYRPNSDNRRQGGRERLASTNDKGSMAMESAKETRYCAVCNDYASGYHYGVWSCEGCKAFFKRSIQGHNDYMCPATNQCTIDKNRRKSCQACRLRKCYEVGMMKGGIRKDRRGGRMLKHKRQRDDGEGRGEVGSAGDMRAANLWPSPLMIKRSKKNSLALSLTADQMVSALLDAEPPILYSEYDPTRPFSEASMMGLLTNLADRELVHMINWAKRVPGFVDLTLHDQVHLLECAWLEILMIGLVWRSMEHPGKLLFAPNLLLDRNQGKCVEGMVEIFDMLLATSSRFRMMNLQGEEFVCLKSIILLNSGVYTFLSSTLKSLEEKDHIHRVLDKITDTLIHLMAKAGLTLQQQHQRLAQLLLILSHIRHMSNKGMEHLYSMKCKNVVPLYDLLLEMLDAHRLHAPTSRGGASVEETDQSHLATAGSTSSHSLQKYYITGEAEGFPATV
The experiment in a line: Radioligand ([3H]-estradiol) competition binding to estrogen receptor, ER-α. The following applies: [3H]-estradiol 100 nM, incubated overnight at 4° C., GF/B filtration, scintillation counting; read-out: Affinity constant of ER-α receptor. As to the method: as §1

In the case of `O=c1c2c(O)cc(O)cc2cnn1-c1ccc(O)cc1`, the Ki turned out to be 0.105 µM in assay [1] and 1.2 µM in assay [2].

Regarding `Cc1nn(-c2ccc(O)cc2)c(=O)c2c(O)cc(O)cc12`, the results for the Ki in assay [1] and in assay [2] were 0.008 µM and 0.076 µM, respectively.

As for `CCc1nn(-c2ccc(O)cc2)c(=O)c2c(O)cc(O)cc12`, the Ki in assay [1] was 0.01 µM; in assay [2] it was 0.098 µM.

As to `O=c1c2c(O)cc(O)c(Br)c2cnn1-c1ccc(O)cc1`, the Ki in assay [1] is 1.5 µM; in assay [2], 3.6 µM.
